Here are results for 11 sequences from patent US8404803B2, “Cancer-associated antigen analogue peptides and uses thereof” (Chugai Seiyaku Kabushiki Kaisha, priority 2005, dated 2013).

Values joined by “and” are separate entries in the source; they are usually repeats but may differ in a detail not shown here. Equal values may be shown once.

In experiment [1] the test system is CD4-positive/IFNγ-producing T cells. Kind of experiment: Flow cytometry detection of CD4-positive/IFNγ-positive T cells in peptide-stimulated mononuclear cell samples. Format: cell-based, human. Conditions: for CD4-positive/IFNγ expression-positive frequencies, mean ± standard deviation: epitope determination, patient's mononuclear cell samples (FIG. 16); for CD4+ IFNγ+ number of positive samples/tested samples: mononuclear cell samples cultured 48 hours with peptide and IL-2; for CD4+ IFNγ+ number of positive samples/tested samples / CD4+ IFNγ+ number of positive samples/tested samples × 100 (%): positive sample > mean of control + 2 × SD (OVCA10-MNC group, 1.378%); for frequency of CD4-positive/INFγ-positive cells, mean±standard deviation: all of the analyzed mononuclear cell samples (FIG. 11); for frequency of CD4-positive/IFNγ-positive T cells: typical example of flow cytometry, FIGS. 9 and 10, IL-2 and analogue peptide added. The method, then:
(§1) All operations concerning cell culture were performed aseptically. First, human peripheral mononuclear cell fractions (comprising T cells, B cells, macrophages and such; hereinafter referred to as “mononuclear cell samples”) were prepared from the blood samples by density gradient centrifugation. Next, these mononuclear cells were suspended at 1×10^5 cell/ml in complete media having the following composition: • Complete Medium: RPMI1640 culture medium (Gibco Laboratories Inc., Grand Island, N.Y.) to which 10% fetal bovine serum (Cell Culture Laboratories, Cleveland, Ohio), 0.2 mM L-glutamine, 100 U/mL penicillin, 100 μg/mL streptomycin (Gibco Laboratories Inc.), and 0.2 ng/mL recombinant human IL-2 (Dainippon Pharmaceutical Co., Tokyo, Japan) have been mixed.
(§2) Theses mononuclear cell samples were placed still in V-bottomed 96-well tissue culture plastic plates (Flow Laboratories Inc., Horsham, Pa.) in the presence and absence of peptides, and cultured for 48 hours at 37° C. in a CO2 culture apparatus (Sanyo Medica, Osaka, Japan).
(§3) A number of mouse-derived anti-human specific monoclonal antibodies with different fluorescences (hereinafter referred to as ‘monoclonal antibodies’) were used to simultaneously analyze by double-staining the CD markers CD4 and CD8, which are on the T cell membranes, and the cytokines within the T cells. As the monoclonal antibodies, products labeled with either fluorescent substance phycoerythrin (hereinafter ‘PE’) or fluorescein isothiocyanate (hereinafter ‘FITC’) were used (Miltenyi Biotec, Glandbach, Germany). For detection, a flow cytometry apparatus FACScan (Becton Dickinson) was used to measure the frequency of cells to which the monoclonal antibodies had bound. Positive cells are automatically detected by the flow cytometry apparatus.
(§4) Since positive cells cannot be identified after the cytokines have been secreted to the outside of the cells, detection was performed at a stage where the cytokines are inside the cells. Therefore, the Cytofix/Cytoperm Kit (Pharmingen, San Diego, Calif.) was used for the analysis, using methods recommended by the manufacturer and a positive control for detection recommended by the kit (Prussin C, Metcalfe D, Detection of intracytoplasmic cytokine using flow cytometry and directly conjugated anti-cytokine antibodies, J Immunol Meth. 188: 117-128, 1995). Specifically, brefeldin A (Pharmingen, San Diego, Calif.) was added at 0.7 μl/1 ml/well to stop protein production in the Golgi apparatus, and the peptide-stimulated mononuclear cell samples were treated at 37° C. for two hours. Next, the culture plates were placed on ice and the reaction was stopped by adding physiological saline at 4° C. The mononuclear cell samples were transferred into 15 ml tubes as though by washing with the physiological saline at 4° C., and were then centrifuged at 1600 rpm for ten minutes to remove the supernatant.
(§5) First, to dye CD4s on the cell surface, 10 μl of FITC-labeled mouse anti-human CD4 was added, with CD8 monoclonal antibody as a control, and this was reacted at 4° C. for 30 minutes. The cells were then separated with 0.5% bovine serum albumin/physiological saline at 4° C., then 0.5% bovine serum albumin/physiological saline at 4° C. was added thereto, and this was centrifuged at 1600 rpm for ten minutes at 4° C. to remove the supernatant.
(§6) Next, the mononuclear cell samples were fixed and their cell membranes were permeabilized. The cells were suspended in 250 μl of Cytofix/Cytoperm (Pharmingen) solution and reacted at 4° C. for 20 minutes. 10 μl of the aforementioned fluorescently labeled anti-IFNγ monoclonal antibody or anti-IL-4 monoclonal antibody was added to these mononuclear cell samples and reacted at 4° C. for 30 minutes. Then, the cells were separated by adding 0.5% bovine serum albumin/physiological saline at 4° C., and 0.5% BSA/PBS at 4° C. was further added thereto. After centrifugation at 1600 rpm for ten minutes at 4° C., the supernatant was removed. […]
(In general: A flow cytometer gives signals particle by particle.)

The test system of experiment [2] is CD4-positive/IL-4-producing T cells. In words: Flow cytometry detection of CD4-positive/IL-4-positive T cells in peptide-stimulated mononuclear cell samples. Format: cell-based, human. Conditions: for CD4-positive/IL-4-positive frequencies, mean ± standard deviation: epitope determination, patient's mononuclear cell samples (FIG. 14); for CD4+ IL-4+ number of positive samples/tested samples: mononuclear cell samples cultured 48 hours with peptide and IL-2; for CD4+ IL-4+ number of positive samples/tested samples / CD4+ IL-4+ number of positive samples/tested samples × 100 (%): positive sample > mean of control + 2 × SD (OVCA10-MNC group, 1.148%); for frequency of CD4-positive/IL-4-positive cells, mean±standard deviation: all the analyzed mononuclear cell samples (FIG. 8); for frequency of CD4-positive/IL-4-positive T cells: typical example of flow cytometry, FIGS. 6 and 7, IL-2 and analogue peptide added. The method, then: as §1, §2, §3, §4, §5, §6

With “ETTATGPLLV (listed as Homo sapiens) [OVCA104]”, in experiment [1] (peptide 15 μM), the “CD4-positive/IFNγ expression-positive frequencies, mean ± standard deviation” value worked out at 0.376±0.490%. Besides, in experiment [1], the “CD4+ IFNγ+ number of positive samples/tested samples” value is on record as 1/14 and the “CD4+ IFNγ+ number of positive samples/tested samples × 100 (%)” value is reported as 7.1%. Moreover, the “CD4-positive/IL-4-positive frequencies, mean ± standard deviation” value in experiment [2] (peptide 15 μM) is recorded as 0.301±0.340%. Also, in experiment [2], the “CD4+ IL-4+ number of positive samples/tested samples” value is listed as 0/14 and the “CD4+ IL-4+ number of positive samples/tested samples × 100 (%)” value turned out to be 0%.
Regarding “GHTAPGPLLV (listed as Homo sapiens) [OVCA102]”, in experiment [1] (peptide 15 μM), the “CD4-positive/IFNγ expression-positive frequencies, mean ± standard deviation” value turned out to be 0.532±0.545%. In experiment [1], the “CD4+ IFNγ+ number of positive samples/tested samples” value is listed as 1/14 and the “CD4+ IFNγ+ number of positive samples/tested samples × 100 (%)” value is 7.1%. For the same sequence, the “CD4-positive/IL-4-positive frequencies, mean ± standard deviation” value in experiment [2] (peptide 15 μM) is 0.231±0.309%. In experiment [2], the “CD4+ IL-4+ number of positive samples/tested samples” value is recorded as 0/14 and the “CD4+ IL-4+ number of positive samples/tested samples × 100 (%)” value is on record as 0%.
As for “GHTAPVPLLI (listed as Homo sapiens) [OVCA101]”, the “CD4-positive/IFNγ expression-positive frequencies, mean ± standard deviation” value in experiment [1] (peptide 15 μM) was 0.471±0.562%. Besides, in experiment [1], the “CD4+ IFNγ+ number of positive samples/tested samples” value was 2/14 and the “CD4+ IFNγ+ number of positive samples/tested samples × 100 (%)” value was 14.3%. Moreover, the “CD4-positive/IL-4-positive frequencies, mean ± standard deviation” value in experiment [2] (peptide 15 μM) worked out at 0.181±0.231%. Further, in experiment [2], the “CD4+ IL-4+ number of positive samples/tested samples” value is recorded as 0/14 and the “CD4+ IL-4+ number of positive samples/tested samples × 100 (%)” value came out at 0%.
Take “GPSAASPLLV (listed as Homo sapiens) [OVCA106]”: the “CD4-positive/IFNγ expression-positive frequencies, mean ± standard deviation” value in experiment [1] (peptide 15 μM) was determined as 0.641±1.082%. In experiment [1], the “CD4+ IFNγ+ number of positive samples/tested samples” value was 2/14 and the “CD4+ IFNγ+ number of positive samples/tested samples × 100 (%)” value came out at 14.3%. Also, in experiment [2] (peptide 15 μM), the “CD4-positive/IL-4-positive frequencies, mean ± standard deviation” value amounted to 0.649±1.337%. In experiment [2], the “CD4+ IL-4+ number of positive samples/tested samples” value is given as 2/14 and the “CD4+ IL-4+ number of positive samples/tested samples × 100 (%)” value is given as 14.3%.
In the case of “GPTTASPLLV (listed as Homo sapiens) [OVCA105]”, in experiment [1] (peptide 15 μM), the “CD4-positive/IFNγ expression-positive frequencies, mean ± standard deviation” value was 0.379±0.497%. In experiment [1], the “CD4+ IFNγ+ number of positive samples/tested samples” value was 1/14 and the “CD4+ IFNγ+ number of positive samples/tested samples × 100 (%)” value is on record as 7.1%. Besides, the “CD4-positive/IL-4-positive frequencies, mean ± standard deviation” value in experiment [2] (peptide 15 μM) was found to be 0.243±0.358%. Also, in experiment [2], the “CD4+ IL-4+ number of positive samples/tested samples” value is 1/14 and the “CD4+ IL-4+ number of positive samples/tested samples × 100 (%)” value is 0%.
Regarding “GTSGTPASLPGHTAPGPLLV (listed as Homo sapiens) [OVCA10]”, the “frequency of CD4-positive/INFγ-positive cells, mean±standard deviation” value in experiment [1] (peptide 15 μM) amounted to 0.328±0.525%. Also, in experiment [1], the “CD4+ IFNγ+ number of positive samples/tested samples” value is recorded as 1/33, the “CD4+ IFNγ+ number of positive samples/tested samples × 100 (%)” value was 3.0% and the “frequency of CD4-positive/IFNγ-positive T cells” value was found to be 0.11%. Also, in experiment [2] (peptide 15 μM), the “frequency of CD4-positive/IL-4-positive cells, mean±standard deviation” value was 0.252±0.448%. Besides, in experiment [2], the “CD4+ IL-4+ number of positive samples/tested samples” value is listed as 1/33, the “CD4+ IL-4+ number of positive samples/tested samples × 100 (%)” value turned out to be 3.0% and the “frequency of CD4-positive/IL-4-positive T cells” value came to 0.05%.
On to “LRYEENMRHP (listed as Homo sapiens) [OVCA115]”, for which the “CD4-positive/IFNγ expression-positive frequencies, mean ± standard deviation” value in experiment [1] (peptide 15 μM) is 0.161±0.157%. Moreover, in experiment [1], the “CD4+ IFNγ+ number of positive samples/tested samples” value is 0/8 and the “CD4+ IFNγ+ number of positive samples/tested samples × 100 (%)” value came to 0%. In addition, the “CD4-positive/IL-4-positive frequencies, mean ± standard deviation” value in experiment [2] (peptide 15 μM) worked out at 0.281±0.424%. For the same sequence, in experiment [2], the “CD4+ IL-4+ number of positive samples/tested samples” value was 1/9 and the “CD4+ IL-4+ number of positive samples/tested samples × 100 (%)” value was determined as 11.1%.
For the sequence “LRYEENMRHPGSRKFNTTER (listed as Homo sapiens) [OVCA13]”, in experiment [1], the “CD4+ IFNγ+ number of positive samples/tested samples” value is 0/6 and the “CD4+ IFNγ+ number of positive samples/tested samples × 100 (%)” value is 0%. In experiment [2], the “CD4+ IL-4+ number of positive samples/tested samples” value was 0/6 and the “CD4+ IL-4+ number of positive samples/tested samples × 100 (%)” value is 0%.
With “PFTLNFTITNLRYEENMRHP (listed as Homo sapiens) [OVCA12]”, the “frequency of CD4-positive/IFNγ-producing T cells compared to groups to which OVCA10 was added” value in experiment [1] (FIG. 11, peptide 15 μM, statistically significant difference) is listed as “higher”. Further, in experiment [1] (peptide 15 μM), the “frequency of CD4-positive/INFγ-positive cells, mean±standard deviation” value is given as 5.071±10.315%. In experiment [1], the “CD4+ IFNγ+ number of positive samples/tested samples” value was 13 of the 33 and 13/33; the “CD4+ IFNγ+ number of positive samples/tested samples × 100 (%)” value worked out at 39.4%; the “frequency of CD4-positive/IFNγ-positive T cells” value was determined as 0.28%. In experiment [2] (FIG. 8, peptide 15 μM, statistically significant difference), the “frequency of CD4-positive/IL-4-producing T cells compared to groups to which OVCA10 was added” value is “higher”. Further, in experiment [2] (peptide 15 μM), the “frequency of CD4-positive/IL-4-positive cells, mean±standard deviation” value was 5.263±9.059%. In addition, in experiment [2], the “CD4+ IL-4+ number of positive samples/tested samples” value is 18 of the 33 and 18/33; the “CD4+ IL-4+ number of positive samples/tested samples × 100 (%)” value is 54.5%; the “frequency of CD4-positive/IL-4-positive T cells” value was determined as 0.57%.
On to “RPIVPGPLLV (listed as Homo sapiens) [OVCA103]”, for which the “CD4-positive/IFNγ expression-positive frequencies, mean ± standard deviation” value in experiment [1] (peptide 15 μM) amounted to 0.331±0.467%. Further, in experiment [1], the “CD4+ IFNγ+ number of positive samples/tested samples” value is given as 1/14 and the “CD4+ IFNγ+ number of positive samples/tested samples × 100 (%)” value worked out at 7.1%. Besides, the “CD4-positive/IL-4-positive frequencies, mean ± standard deviation” value in experiment [2] (peptide 15 μM) is on record as 0.211±0.269%. Besides, in experiment [2], the “CD4+ IL-4+ number of positive samples/tested samples” value is recorded as 0/14 and the “CD4+ IL-4+ number of positive samples/tested samples × 100 (%)” value was determined as 0%.
“STPGTSTVHLGTSGTPASLP (listed as Homo sapiens) [OVCA9]”: in experiment [1], the “CD4+ IFNγ+ number of positive samples/tested samples” value is recorded as 2/29, the “CD4+ IFNγ+ number of positive samples/tested samples × 100 (%)” value came out at 6.9% and the “frequency of CD4-positive/IFNγ-positive T cells” value stood at 0.02%. Besides, in experiment [2], the “CD4+ IL-4+ number of positive samples/tested samples” value is 0/29, the “CD4+ IL-4+ number of positive samples/tested samples × 100 (%)” value was 0% and the “frequency of CD4-positive/IL-4-positive T cells” value is 0.05%.
